Source: PubChem BioAssay AID1963837 (Molecular Pharmacology Branch, DTP, NCI, 2024)

System: 843126-344-R-J1-PDC complex spheroid viability
Experiment: Anticancer human tumor 843126-344-R-J1-PDC patient-derived melanoma cell line growth inhibition [POLQ]
Details: for IC50: curve of first compound; for viability, T/C: stronger effect = lower value
Method: Multicellular complex tumor spheroid response to Polymerase (POL) inhibitors (novobiocin, ART-558, RP6685) in combination with a variety of drugs and investigational agents in selected tumor cell lines
The POL inhibitors (novobiocin, ART-558, and RP6685) were evaluated both individually and in combination with standard of care and investigational anticancer small molecules within a complex spheroid model of solid tumors. . Complex spheroids include a stromal component modeled by human endothelial cells (HUVEC) and fibroblasts modeled by human mesenchymal stem cells (MSCs). The concentration ranges selected for each drug and investigational agent were based upon clinically achievable concentrations if the clinical Cmax of the agent was known.
Compounds. The drugs and investigational agents: novobiocin (NSC847541), ART-558 (NSC835418), RP-6685 (NSC848927), peposertib (NSC802822), ceralasertib (NSC780249), elimusertib (NSC800525), camonsertib (NSC841442), AZD-1390 (NSC803789), olaparib (NSC753686), talazoparib (NSC767125), rucaparib (NSC756644), sotorasib (NSC818433), MRTX-1133 (NSC836407), SN-38 (NSC673596), topotecan (NSC609699), epotoside (NSC141540), doxorubicin (NSC123127), gemcitabine (NSC613327), 5-fluorouracil (NSC19893), paclitaxel (NSC125973), vemurafenib (NSC761431), MSA-2 (NSC828583), SN-011 (NSC837082), adavosertib (NSC754352), prexasertib (NSC758257), carboplatin (NSC241240) and oxaliplatin (NSC266046), were obtained from the National Cancer Institute (NCI) Developmental Therapeutics Program Chemical Repository (21). The FDA-approved anticancer drug set is available from the Developmental Therapeutics Program at https://dtp.cancer.gov/organization/dscb/obtaining/. […] The stock solutions were prepared in dimethyl sulfoxide (DMSO, Sigma-Aldrich, St. Louis, MO, cat. D2650), except for the platinum compounds which were prepared in saline (Quality Biological, Gaithersburg, MD, cat. 114-055-101), at 800-fold the tested concentration and stored at -70 degrees C prior to their use. All drugs and investigational agents were tested over a range starting from a high concentration at or near the clinical Cmax and decreasing in half-log increments. If the clinical Cmax for an agent had not been determined, the highest concentration tested was 10 microM, except for SN-38, which was tested at a high concentration of 1 microM.
Cell Culture. All cells were maintained in an incubator at 37 degrees C and 5% CO2 with 95% humidity. The PDC lines were cultured according to standard operating procedures established by the NCI PDMR (https://pdmr.cancer.gov). Table 3 of the manuscript, lists the cell lines along with the number of the three cell types plated to form the mct-spheroids and media for tumor cell growth. After thawing, all PDC lines, except 997537-175-T-J1-PDC and 415267-285-R-J2-PDC, were cultured in Matrigel-coated flasks prepared with a working solution of 1X Ham's F-12 nutrient mix, without supplementation (Thermo Fisher Scientific, cat. 11765054), 100 U/mL penicillin-streptomycin (Thermo Fisher Scientific, cat. 15140122), and 2.5% Matrigel (Corning Inc., Corning, NY, cat. 354248) for the first three passages. The two PDC lines 997537-175-T-J1-PDC and 415267-285-R-J2-PDC were cultured on uncoated flasks. The 857933-349-R-J2-PDC line was cultured in 6C/Colon 1B media containing advanced DMEM/F-12 (Thermo Fisher Scientific, cat. 12634028), 10 mM HEPES (Thermo Fisher Scientific, cat. 15630080), 1X GlutaMAX supplement (Thermo Fisher Scientific, cat. 35050061), 0.1 mg/mL primocin (InvivoGen, San Diego, CA, cat. ant-pm-2), 10% defined fetal bovine serum, heat inactivated (HyClone Laboratories Inc., Logan, UT, cat. SH30070.03HI), 50% L-WRN conditioned media (ATCC, cat. CRL-3276), 1.25 mM N-Acetyl-L-cysteine (Sigma-Aldrich, cat. A9165), 10 mM nicotinamide (Sigma-Aldrich, cat. N0636), 1X B-27 supplement (Thermo Fisher Scientific, cat. 17504044), 1X N-2 supplement (Thermo Fisher Scientific, cat. […]

[1] = second compound 0.0316 µM, first compound 0.00316 µM
[2] = second compound 0.0316 µM, first compound 0.01 µM
[3] = second compound 0.0316 µM, first compound 0.0316 µM
[4] = second compound 0.0316 µM, first compound 0.1 µM
[5] = second compound 0.0316 µM, first compound 0.316 µM
[6] = second compound 0.0316 µM, first compound 1 µM
[7] = second compound 0.1 µM, first compound 0.00316 µM
[8] = second compound 0.1 µM, first compound 0.01 µM
[9] = second compound 0.1 µM, first compound 0.0316 µM
[10] = second compound 0.1 µM, first compound 0.1 µM
[11] = second compound 0.1 µM, first compound 0.316 µM
[12] = second compound 0.1 µM, first compound 1 µM
[13] = second compound 0.316 µM, first compound 0.00316 µM
[14] = second compound 0.316 µM, first compound 0.01 µM
[15] = second compound 0.316 µM, first compound 0.0316 µM
[16] = second compound 0.316 µM, first compound 0.1 µM
[17] = second compound 0.316 µM, first compound 0.316 µM
[18] = second compound 0.316 µM, first compound 1 µM
[19] = second compound 1 µM, first compound 0.00316 µM
[20] = second compound 1 µM, first compound 0.01 µM
[21] = second compound 1 µM, first compound 0.0316 µM
[22] = second compound 1 µM, first compound 0.1 µM
[23] = second compound 1 µM, first compound 0.316 µM
[24] = second compound 1 µM, first compound 1 µM
[25] = second compound 3.16 µM, first compound 0.00316 µM
[26] = second compound 3.16 µM, first compound 0.01 µM
[27] = second compound 3.16 µM, first compound 0.0316 µM
[28] = second compound 3.16 µM, first compound 0.1 µM
[29] = second compound 3.16 µM, first compound 0.316 µM
[30] = second compound 3.16 µM, first compound 1 µM
[31] = second compound 10 µM, first compound 0.00316 µM
[32] = second compound 10 µM, first compound 0.01 µM
[33] = second compound 10 µM, first compound 0.0316 µM
[34] = second compound 10 µM, first compound 0.1 µM
[35] = second compound 10 µM, first compound 0.316 µM
[36] = second compound 10 µM, first compound 1 µM
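Throughout, for viability, T/C: spheroids exposed to drugs for seven days before readout.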

Compound: C=CCn1c(=O)c2cnc(Nc3ccc(N4CCN(C)CC4)cc3)nc2n1-c1cccc(C(C)(C)O)n1 + Cc1cccc(N(C)C(=O)C2C(O)CCN2c2nc(C)cc(C(F)(F)F)c2C#N)c1
- IC50 (second compound 0.0316 µM): > 1000 nM
- IC50 (second compound 0.1 µM): > 1000 nM
- IC50 (second compound 0.316 µM): > 1000 nM
- IC50 (second compound 1 µM): > 1000 nM
- IC50 (second compound 3.16 µM): > 1000 nM
- IC50 (second compound 10 µM): > 1000 nM
- viability, T/C [1]: 108%
- viability, T/C [2]: 88.7%
- viability, T/C [3]: 95.2%
- viability, T/C [4]: 111%
- viability, T/C [5]: 105%
- viability, T/C [6]: 81.8%
- viability, T/C [7]: 111%
- viability, T/C [8]: 113%
- viability, T/C [9]: 103%
- viability, T/C [10]: 113%
- viability, T/C [11]: 95.9%
- viability, T/C [12]: 80.8%
- viability, T/C [13]: 101%
- viability, T/C [14]: 103%
- viability, T/C [15]: 108%
- viability, T/C [16]: 93.3%
- viability, T/C [17]: 89.3%
- viability, T/C [18]: 73.7%
- viability, T/C [19]: 86%
- viability, T/C [20]: 102%
- viability, T/C [21]: 111%
- viability, T/C [22]: 99.5%
- viability, T/C [23]: 122%
- viability, T/C [24]: 86%
- viability, T/C [25]: 103%
- viability, T/C [26]: 105%
- viability, T/C [27]: 104%
- viability, T/C [28]: 112%
- viability, T/C [29]: 113%
- viability, T/C [30]: 89.3%
- viability, T/C [31]: 105%
- viability, T/C [32]: 89%
- viability, T/C [33]: 94.3%
- viability, T/C [34]: 94.1%
- viability, T/C [35]: 102%
- viability, T/C [36]: 83.6%

Compound: COc1cc(C2c3cc4c(cc3C(OC3OC5COC(C)OC5C(O)C3O)C3COC(=O)C23)OCO4)cc(OC)c1O (stereo unspecified) + Cc1cccc(N(C)C(=O)C2C(O)CCN2c2nc(C)cc(C(F)(F)F)c2C#N)c1
- IC50 (second compound 0.0316 µM): 8760 nM
- IC50 (second compound 0.1 µM): 8260 nM
- IC50 (second compound 0.316 µM): 6010 nM
- IC50 (second compound 1 µM): > 10000 nM
- IC50 (second compound 3.16 µM): 5470 nM
- IC50 (second compound 10 µM): 3780 nM
- viability, T/C [3]: 86.5%
- viability, T/C [4]: 81.5%
- viability, T/C [5]: 77.9%
- viability, T/C [6]: 92.3%
- viability, T/C (second compound 0.0316 µM, first compound 3.16 µM): 55.3%
- viability, T/C (second compound 0.0316 µM, first compound 10 µM): 49.3%
- viability, T/C [9]: 83.2%
- viability, T/C [10]: 103%
- viability, T/C [11]: 100%
- viability, T/C [12]: 68.9%
- viability, T/C (second compound 0.1 µM, first compound 3.16 µM): 72.8%
- viability, T/C (second compound 0.1 µM, first compound 10 µM): 45.5%
- viability, T/C [15]: 82.1%
- viability, T/C [16]: 84.1%
- viability, T/C [17]: 92.7%
- viability, T/C [18]: 71.8%
- viability, T/C (second compound 0.316 µM, first compound 3.16 µM): 61.2%
- viability, T/C (second compound 0.316 µM, first compound 10 µM): 42.1%
- viability, T/C [21]: 86.1%
- viability, T/C [22]: 90.3%
- viability, T/C [23]: 86.6%
- viability, T/C [24]: 82.3%
- viability, T/C (second compound 1 µM, first compound 3.16 µM): 56.9%
- viability, T/C (second compound 1 µM, first compound 10 µM): 50.2%
- viability, T/C [27]: 77.9%
- viability, T/C [28]: 79.7%
- viability, T/C [29]: 84.4%
- viability, T/C [30]: 75.9%
- viability, T/C (second compound 3.16 µM, first compound 3.16 µM): 54.2%
- viability, T/C (second compound 3.16 µM, first compound 10 µM): 45.5%
- viability, T/C [33]: 84.1%
- viability, T/C [34]: 83.1%
- viability, T/C [35]: 79%
- viability, T/C [36]: 74%
- viability, T/C (second compound 10 µM, first compound 3.16 µM): 50.6%
- viability, T/C (second compound 10 µM, first compound 10 µM): 44.8%

Compound: CCc1c2c(nc3ccc(O)cc13)-c1cc3c(c(=O)n1C2)COC(=O)[C@]3(O)CC + COC1C(OC(N)=O)C(O)C(Oc2ccc3c(O)c(NC(=O)c4ccc(O)c(CC=C(C)C)c4)c(=O)oc3c2C)OC1(C)C
- IC50 (second compound 0.0316 µM): > 1000 nM
- IC50 (second compound 0.1 µM): > 1000 nM
- IC50 (second compound 0.316 µM): > 1000 nM
- IC50 (second compound 1 µM): 429 nM
- IC50 (second compound 3.16 µM): 242 nM
- IC50 (second compound 10 µM): 485 nM
- viability, T/C [1]: 63.2%
- viability, T/C [2]: 59.4%
- viability, T/C [3]: 65.9%
- viability, T/C [4]: 64.5%
- viability, T/C [5]: 63.1%
- viability, T/C [6]: 42.7%
- viability, T/C [7]: 66.5%
- viability, T/C [8]: 52.1%
- viability, T/C [9]: 71.4%
- viability, T/C [10]: 69.2%
- viability, T/C [11]: 63.8%
- viability, T/C [12]: 48.6%
- viability, T/C [13]: 70.5%
- viability, T/C [14]: 59.4%
- viability, T/C [15]: 64.9%
- viability, T/C [16]: 64.8%
- viability, T/C [17]: 73%
- viability, T/C [18]: 50.3%
- viability, T/C [19]: 66.7%
- viability, T/C [20]: 48.2%
- viability, T/C [21]: 50.9%
- viability, T/C [22]: 70.6%
- viability, T/C [23]: 48.6%
- viability, T/C [24]: 40.5%
- viability, T/C [25]: 66.9%
- viability, T/C [26]: 63.7%
- viability, T/C [27]: 73.3%
- viability, T/C [28]: 57.1%
- viability, T/C [29]: 50.9%
- viability, T/C [30]: 44.8%
- viability, T/C [31]: 59.9%
- viability, T/C [32]: 62.7%
- viability, T/C [33]: 56.3%
- viability, T/C [34]: 67.5%
- viability, T/C [35]: 50%
- viability, T/C [36]: 43%
